# In patent US11981686B2, “Urea compound having substituent” (DAIICHI SANKYO COMPANY, LIMITED, priority 2019, dated 2024):
# Target: SIRT6 enzyme (Homo sapiens, UniProt Q8N6T7)
# Test: Measurement of deacetylation activity (SIRT6, AlphaLISA, H3K9(Ac) peptide)
# Type: biochemical
# Settings: SIRT6 25 ng/mL, H3K9(Ac) biotin peptide 2 nM, NAD 10 μM, room temperature 30 minutes, duplicate
# How it was run: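 Activation read as EC150, the concentration giving 150% activity relative to enzyme/no-enzyme DMSO controls, via variable-slope fit. Deacetylation of 2 nM biotinylated H3K9(Ac) peptide with 10 μM NAD+ by 25 ng/mL SIRT6 ran 30 min at room temperature, pH 8.0, then AlphaLISA detection of unmodified H3K9.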
# Chain of SIRT6 enzyme (Q8N6T7 whole entry, species assumed): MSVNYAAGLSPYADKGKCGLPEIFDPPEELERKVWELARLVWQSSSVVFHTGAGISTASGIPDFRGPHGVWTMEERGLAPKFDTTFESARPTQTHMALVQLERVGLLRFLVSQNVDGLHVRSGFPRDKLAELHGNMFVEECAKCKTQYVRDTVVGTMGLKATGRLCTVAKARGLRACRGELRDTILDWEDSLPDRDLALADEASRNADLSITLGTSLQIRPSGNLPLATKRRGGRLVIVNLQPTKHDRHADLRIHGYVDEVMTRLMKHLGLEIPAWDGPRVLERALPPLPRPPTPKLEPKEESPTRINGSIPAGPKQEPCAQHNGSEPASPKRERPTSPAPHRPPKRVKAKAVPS
row,SMILES,EC150 (the concentration of the compound showing a relative enzyme activity of 150%)
1,"CNC(=O)Nc1nc2c(s1)CN(c1nc(C3CCCC(F)(F)C3)no1)CC2 (stereo not drawn) [Example 36, N-{5-[3-(3,3-difluorocyclohexyl)-1,2,4-oxadiazol-5-yl]-4,5,6,7-tetrahydro[1,3]thiazolo[5,4-c]pyridin-2-yl}-N′-methylurea]",1.9 μm
2,"CNC(=O)Nc1nc2c(s1)C1CN(C(C)=O)CC(C2)N1c1ncc(-c2cccc(OC)n2)o1 (stereo not drawn) [Example 126, N-{6-acetyl-10-[5-(6-methoxypyridin-2-yl)-1,3-oxazol-2-yl]-4,5,6,7,8,9-hexahydro-4,8-epimino[1,3]thiazolo[5,4-d]azocin-2-yl}-N′-methylurea]",1 μm
3,"COc1cccc(-c2cnc(N3[C@@H]4COC[C@H]3c3sc(NC(=O)N[C@H](C)CO)nc3C4)o2)n1 [Example 67, N-[(2R)-1-hydroxypropan-2-yl]-N′-{(4S,8S)-10-[5-(6-methoxypyridin-2-yl)-1,3-oxazol-2-yl]-4,7,8,9-tetrahydro-5H-4,8-epiminooxocino[5,4-d][1,3]thiazol-2-yl}urea]",0.75 μm
4,"COc1cccc(-c2cc(N3[C@@H]4COC[C@H]3c3sc(NC(=O)N[C@@H]5CCOC5)nc3C4)no2)n1 [Example 163, N-{(4S,8S)-10-[5-(6-methoxypyridin-2-yl)-1,2-oxazol-3-yl]-4,7,8,9-tetrahydro-5H-4,8-epiminooxocino[5,4-d][1,3]thiazol-2-yl}-N′-[(3R)-oxolan-3-yl]urea]",1.6 μm
5,"O=C(Nc1nc2c(s1)[C@@H]1COC[C@H](C2)N1c1cc(-c2ccc(F)cc2)on1)N[C@H]1CC[C@H](O)CC1 [Example 159, N-{(4S,8S)-10-[5-(4-fluorophenyl)-1,2-oxazol-3-yl]-4,7,8,9-tetrahydro-5H-4,8-epiminooxocino[5,4-d][1,3]thiazol-2-yl}-N′-[(1r,4r)-4-hydroxycyclohexyl]urea]",1.3 μm
6,"CCNC(=O)Nc1nc2c(s1)C1CN(C(C)=O)CC(C2)N1c1nc(-c2ccc(F)cc2)no1 (stereo not drawn) [Example 136, N-{6-acetyl-10-[3-(4-fluorophenyl)-1,2,4-oxadiazol-5-yl]-4,5,6,7,8,9-hexahydro-4,8-epimino[1,3]thiazolo[5,4-d]azocin-2-yl}-N′-ethylurea]",0.34 μm
7,"O=C(Nc1nc2c(s1)CN(c1nc(C3CCC(F)(F)CC3)no1)CC2)N[C@H]1CC[C@H](O)CC1 [Example 26, N-{5-[3-(4,4-difluorocyclohexyl)-1,2,4-oxadiazol-5-yl]-4,5,6,7-tetrahydro[1,3]thiazolo[5,4-c]pyridin-2-yl}-N′-[(1r,4r)-4-hydroxycyclohexyl]urea]",0.81 μm
8,"COc1ccc2oc(N3[C@@H]4COC[C@H]3c3sc(NC(=O)N[C@@H]5CCOC5)nc3C4)nc2c1 [Example 47, N-[(4S,8S)-10-(5-methoxy-1,3-benzoxazol-2-yl)-4,7,8,9-tetrahydro-5H-4,8-epiminooxocino[5,4-d][1,3]thiazol-2-yl]-N′-[(3R)-oxolan-3-yl]urea]",0.83 μm
9,"CC(C)(O)CNC(=O)Nc1nc2c(s1)CN(c1nc(C3CCC(F)(F)CC3)no1)CC2 [Example 88, N-{5-[3-(4,4-difluorocyclohexyl)-1,2,4-oxadiazol-5-yl]-4,5,6,7-tetrahydro[1,3]thiazolo[5,4-c]pyridin-2-yl}-N′-(2-hydroxy-2-methylpropyl)urea]",1.1 μm
10,"O=C(Nc1nc2c(s1)[C@@H]1COC[C@H](C2)N1c1ncc(-c2cccc(OC(F)F)n2)o1)N[C@@H]1COC[C@H]1O [Example 175, N-[(4S,8S)-10-{5-[6-(difluoromethoxy)pyridin-2-yl]-1,3-oxazol-2-yl}-4,7,8,9-tetrahydro-5H-4,8-epiminooxocino[5,4-d][1,3]thiazol-2-yl]-N′-[(3R,4S)-4-hydroxyoxolan-3-yl]urea]",0.27 μm
11,"CNC(=O)Nc1nc2c(s1)C1COCC(C2)N1c1nnc(-c2cccc(C(F)(F)F)c2)o1 (stereo not drawn) [Example 110, N-methyl-N′-(10-{5-[3-(trifluoromethyl)phenyl]-1,3,4-oxadiazol-2-yl}-4,7,8,9-tetrahydro-5H-4,8-epiminooxocino[5,4-d][1,3]thiazol-2-yl)urea]",3.7 μm
12,"CC(C)NC(=O)Nc1nc2c(s1)[C@@H]1COC[C@H](C2)N1c1nc2cc(S(C)(=O)=O)ccc2o1 [Example 50, N-{(4S,8S)-10-[5-(methanesulfonyl)-1,3-benzoxazol-2-yl]-4,7,8,9-tetrahydro-5H-4,8-epiminooxocino[5,4-d][1,3]thiazol-2-yl}-N′-propan-2-ylurea]",1.5 μm
13,"C[C@H](CO)NC(=O)Nc1nc2c(s1)C1CCC(C2)N1c1nc2cc(S(C)(=O)=O)ccc2o1 (stereo partly drawn) [Example 152, N-[(2R)-1-hydroxypropan-2-yl]-N′-{9-[5-(methanesulfonyl)-1,3-benzoxazol-2-yl]-5,6,7,8-tetrahydro-4H-5,8-epiminocyclohepta[d][1,3]thiazol-2-yl}urea]",2.7 μm
14,"CNC(=O)Nc1nc2c(s1)C1CN(S(C)(=O)=O)CC(C2)N1c1nc(-c2ccc(F)cc2)no1 (stereo not drawn) [Example 31, N-{10-[3-(4-fluorophenyl)-1,2,4-oxadiazol-5-yl]-6-(methanesulfonyl)-4,5,6,7,8,9-hexahydro-4,8-epimino[1,3]thiazolo[5,4-d]azocin-2-yl}-N′-methylurea]",2.5 μm
15,"O=C(NC[C@H]1COCCO1)Nc1nc2c(s1)[C@@H]1COC[C@H](C2)N1c1nc(-c2ccc(F)cc2)no1 [Example 29, N-{[(2S)-1,4-dioxan-2-yl]methyl}-N′-{(4S,8S)-10-[3-(4-fluorophenyl)-1,2,4-oxadiazol-5-yl]-4,7,8,9-tetrahydro-5H-4,8-epiminooxocino[5,4-d][1,3]thiazol-2-yl}urea]",0.69 μm
16,"[2H]C([2H])([2H])Oc1ccc2oc(N3[C@@H]4COC[C@H]3c3sc(NC(=O)N[C@@H]5CCOC5)nc3C4)nc2c1 [Example 77, N-[(4S,8S)-10-{5-[(^2H3)methyloxy]-1,3-benzoxazol-2-yl}-4,7,8,9-tetrahydro-5H-4,8-epiminooxocino[5,4-d][1,3]thiazol-2-yl]-N′-[(3R)-oxolan-3-yl]urea]",0.79 μm
17,"CNC(=O)Nc1nc2c(s1)C1CN(C(C)=O)CC(C2)N1c1ncc(-c2cccc(OC(F)F)n2)o1 (stereo not drawn) [Example 128, N-(6-acetyl-10-{5-[6-(difluoromethoxy)pyridin-2-yl]-1,3-oxazol-2-yl}-4,5,6,7,8,9-hexahydro-4,8-epimino[1,3]thiazolo[5,4-d]azocin-2-yl)-N′-methylurea]",0.43 μm
18,"Cc1cc2nc(N3[C@@H]4COC[C@H]3c3sc(NC(=O)N[C@H](C)CO)nc3C4)oc2cc1C [Example 148, N-[(4S,8S)-10-(5,6-dimethyl-1,3-benzoxazol-2-yl)-4,7,8,9-tetrahydro-5H-4,8-epiminooxocino[5,4-d][1,3]thiazol-2-yl]-N′-[(2R)-1-hydroxypropan-2-yl]urea]",0.95 μm
19,"COc1ccc2oc(N3CCc4nc(NC(=O)N[C@H](C)CO)sc4C3)nc2c1 [Example 189, N-[(2R)-1-hydroxypropan-2-yl]-N′-[5-(5-methoxy-1,3-benzoxazol-2-yl)-4,5,6,7-tetrahydro[1,3]thiazolo[5,4-c]pyridin-2-yl]urea]",0.38 μm
20,"CNC(=O)Nc1nc2c(s1)CN(c1nc(C(C)OCC(F)(F)F)no1)CC2 (stereo not drawn) [Example 4, N-methyl-N′-(5-{3-[1-(2,2,2-trifluoroethoxy)ethyl]-1,2,4-oxadiazol-5-yl}-4,5,6,7-tetrahydro[1,3]thiazolo[5,4-c]pyridin-2-yl)urea]",1.2 μm
21,"CCOc1cccc(-c2cnc(N3[C@@H]4COC[C@H]3c3sc(NC(=O)NCC(C)(C)O)nc3C4)o2)n1 [Example 79, N-{(4S,8S)-10-[5-(6-ethoxypyridin-2-yl)-1,3-oxazol-2-yl]-4,7,8,9-tetrahydro-5H-4,8-epiminooxocino[5,4-d][1,3]thiazol-2-yl}-N′-(2-hydroxy-2-methylpropyl)urea]",1.2 μm
22,"COc1cc(-c2noc(N3C4COCC3c3sc(NC(=O)N[C@H](C)CO)nc3C4)n2)ccc1F (stereo partly drawn) [Example 83, N-{10-[3-(4-fluoro-3-methoxyphenyl)-1,2,4-oxadiazol-5-yl]-4,7,8,9-tetrahydro-5H-4,8-epiminooxocino[5,4-d][1,3]thiazol-2-yl}-N′-[(2R)-1-hydroxypropan-2-yl]urea]",0.68 μm
23,"C[C@@H](O)CNC(=O)Nc1nc2c(s1)[C@@H]1COC[C@H](C2)N1c1cc(-c2ccc(F)cc2)on1 [Example 65, N-{(4S,8S)-10-[5-(4-fluorophenyl)-1,2-oxazol-3-yl]-4,7,8,9-tetrahydro-5H-4,8-epiminooxocino[5,4-d][1,3]thiazol-2-yl}-N′-[(2R)-2-hydroxypropyl]urea]",2.1 μm
24,"O=C(NCC1(O)CC1)Nc1nc2c(s1)CN(c1nc(C3CCC(F)(F)CC3)no1)CC2 [Example 104, N-{5-[3-(4,4-difluorocyclohexyl)-1,2,4-oxadiazol-5-yl]-4,5,6,7-tetrahydro[1,3]thiazolo[5,4-c]pyridin-2-yl}-N′-[(1-hydroxycyclopropyl)methyl]urea]",1.6 μm
